This test has as its target T1, human serum albumin (HSA) (Homo sapiens, UniProt P02768).
T1 construct: purchased Sigma (St. Louis, MO, USA)
Briefly: Three-dimensional fluorescence spectra of HSA. The class given is binding. To be noted: HSA:compound 1:1, 4 μM, 25 °C. The source says: A useful method for studying drug-HSA interactions is three-dimensional fluorescence spectroscopy, which can offer information about the structural changes to the polypeptide backbone structure and the microenvironment polarity around the Trp and Tyr residues. Peak a (λex = λem) is […], while peak b (2λex = λem) is […]. The change at peak 1 (280/339 nm) reflects a change in the polarity of the microenvironment around the Trp and Tyr residues, and peak 2 (230/336 nm) characterizes the polypeptide backbone structure. […] The fluorescence intensities of both peaks decreased after the addition of derivatives 3a–3d, with a more pronounced decrease observed in the fluorescence intensity of peak 2. […] The changes observed in the 3D spectra correlate with the results of earlier quenching fluorescence experiments. […]
The 3DF spectra of HSA were performed in the absence and presence of compounds 3a–3d using an excitation wavelength range of 200–350 nm and an emission wavelength range of 200–600 nm at room temperature (25 °C). The 3D spectra were recorded for 4 μM of HSA in a 2 mL buffer solution (100 mM NaCl and 10 mM Tris-HCl buffer pH = 7.4) and for the HSA:3a–3d complexes at a concentration ratio 1:1. […]

The source of these data is publication PMC9100673, “Acridine Based N-Acylhydrazone Derivatives as Potential Anticancer Agents: Synthesis, Characterization and ctDNA/HSA Spectroscopic Binding Properties” (Molecules, 2022).

T1 sequence (P02768 25-609): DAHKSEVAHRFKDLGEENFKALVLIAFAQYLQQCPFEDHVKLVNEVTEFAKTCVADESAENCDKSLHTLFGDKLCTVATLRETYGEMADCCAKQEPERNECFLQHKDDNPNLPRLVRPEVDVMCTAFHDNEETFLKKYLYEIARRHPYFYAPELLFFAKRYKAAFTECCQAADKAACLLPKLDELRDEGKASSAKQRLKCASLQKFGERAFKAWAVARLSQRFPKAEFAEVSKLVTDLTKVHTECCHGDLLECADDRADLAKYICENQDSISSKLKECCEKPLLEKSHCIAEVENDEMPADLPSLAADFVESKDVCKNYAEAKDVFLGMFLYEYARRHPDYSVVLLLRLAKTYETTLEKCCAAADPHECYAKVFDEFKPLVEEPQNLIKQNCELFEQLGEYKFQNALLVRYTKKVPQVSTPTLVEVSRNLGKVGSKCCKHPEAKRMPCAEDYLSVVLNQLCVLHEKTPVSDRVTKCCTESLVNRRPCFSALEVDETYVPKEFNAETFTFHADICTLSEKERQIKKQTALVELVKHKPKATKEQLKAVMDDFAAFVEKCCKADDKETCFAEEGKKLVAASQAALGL

For `O=C(N/N=C/c1cccc2cc3ccccc3nc12)c1ccccc1` [3a, N′-[(E)-(Acridin-4-yl)methylidene]benzohydrazide], the “blue shift of peak 1 (280/339 nm)” value was determined as 8 nm and the “blue shift of peak 2 (230/336 nm)” value is 10 nm.
